EP4563586A1, “NEW INHIBITORS OF LRRK2/PP1 INTERACTION” (Université Paris Cité, priority 2023, dated 2025)
Non-standard residues stand in square brackets, D forms with d. Residues, ends and D or L forms follow the SMILES beside them. No end group written: not given here. Ahx = NCCCCCC(=O)O

B1: Peptide 20 (AEVVAKFLHKHDLDLICRAH), fragment of PP1 (peptide)
peptide: AEVVAKFLHKHDLDLICRAH
notes: Synthetic peptide, isolated fragment of PP1
B2: Peptide 21 (NPGGRPITPPRNSAKAKK), fragment of PP1 (peptide)
peptide: NPGGRPITPPRNSAKAKK
notes: as for B1
B3: Peptide 19 (VQGSRPGKNVQLTENE), fragment of PP1 (peptide)
peptide: VQGSRPGKNVQLTENE
notes: as for B1

How the values were obtained:
[1] = Peptide stability in human serum (MALDI-TOF); format: in vitro ADME; conditions: for remaining at 24 h, 100 µM: after 24h of incubation at 37°C in human serum, 100 µM (Figure 6), read-out: peptide still present
Method: The peptides were incubated at 37°C in 250 µL of human serum (Gibco) for different periods of time. Samples were collected and peptide degradation stopped by freezing at -20°C. The peptide was extracted from samples using the Proteo Miner Protein Enrichment System (Bio-Rad). The percentage of intact peptide was estimated by MS using MALDI-TOFF using the protocol previously described (Bruker Autoflex II) according to the manufacturer's instructions. Measurements were performed in triplicate. MS data were analysed using the software Cliprot tools, Flex analysis, Bruker.

[2] = biological target: T1, Leucine-rich repeat kinase 2 (LRRK2), human (human, UniProt Q5S007 1-2527); assay: PP1 dodecapeptide array on cellulose membrane
T1 construct: Protein as present in MDA-MB231 lysates; also called dardarin
T1 sequence (Q5S007 whole entry R50H/L212S): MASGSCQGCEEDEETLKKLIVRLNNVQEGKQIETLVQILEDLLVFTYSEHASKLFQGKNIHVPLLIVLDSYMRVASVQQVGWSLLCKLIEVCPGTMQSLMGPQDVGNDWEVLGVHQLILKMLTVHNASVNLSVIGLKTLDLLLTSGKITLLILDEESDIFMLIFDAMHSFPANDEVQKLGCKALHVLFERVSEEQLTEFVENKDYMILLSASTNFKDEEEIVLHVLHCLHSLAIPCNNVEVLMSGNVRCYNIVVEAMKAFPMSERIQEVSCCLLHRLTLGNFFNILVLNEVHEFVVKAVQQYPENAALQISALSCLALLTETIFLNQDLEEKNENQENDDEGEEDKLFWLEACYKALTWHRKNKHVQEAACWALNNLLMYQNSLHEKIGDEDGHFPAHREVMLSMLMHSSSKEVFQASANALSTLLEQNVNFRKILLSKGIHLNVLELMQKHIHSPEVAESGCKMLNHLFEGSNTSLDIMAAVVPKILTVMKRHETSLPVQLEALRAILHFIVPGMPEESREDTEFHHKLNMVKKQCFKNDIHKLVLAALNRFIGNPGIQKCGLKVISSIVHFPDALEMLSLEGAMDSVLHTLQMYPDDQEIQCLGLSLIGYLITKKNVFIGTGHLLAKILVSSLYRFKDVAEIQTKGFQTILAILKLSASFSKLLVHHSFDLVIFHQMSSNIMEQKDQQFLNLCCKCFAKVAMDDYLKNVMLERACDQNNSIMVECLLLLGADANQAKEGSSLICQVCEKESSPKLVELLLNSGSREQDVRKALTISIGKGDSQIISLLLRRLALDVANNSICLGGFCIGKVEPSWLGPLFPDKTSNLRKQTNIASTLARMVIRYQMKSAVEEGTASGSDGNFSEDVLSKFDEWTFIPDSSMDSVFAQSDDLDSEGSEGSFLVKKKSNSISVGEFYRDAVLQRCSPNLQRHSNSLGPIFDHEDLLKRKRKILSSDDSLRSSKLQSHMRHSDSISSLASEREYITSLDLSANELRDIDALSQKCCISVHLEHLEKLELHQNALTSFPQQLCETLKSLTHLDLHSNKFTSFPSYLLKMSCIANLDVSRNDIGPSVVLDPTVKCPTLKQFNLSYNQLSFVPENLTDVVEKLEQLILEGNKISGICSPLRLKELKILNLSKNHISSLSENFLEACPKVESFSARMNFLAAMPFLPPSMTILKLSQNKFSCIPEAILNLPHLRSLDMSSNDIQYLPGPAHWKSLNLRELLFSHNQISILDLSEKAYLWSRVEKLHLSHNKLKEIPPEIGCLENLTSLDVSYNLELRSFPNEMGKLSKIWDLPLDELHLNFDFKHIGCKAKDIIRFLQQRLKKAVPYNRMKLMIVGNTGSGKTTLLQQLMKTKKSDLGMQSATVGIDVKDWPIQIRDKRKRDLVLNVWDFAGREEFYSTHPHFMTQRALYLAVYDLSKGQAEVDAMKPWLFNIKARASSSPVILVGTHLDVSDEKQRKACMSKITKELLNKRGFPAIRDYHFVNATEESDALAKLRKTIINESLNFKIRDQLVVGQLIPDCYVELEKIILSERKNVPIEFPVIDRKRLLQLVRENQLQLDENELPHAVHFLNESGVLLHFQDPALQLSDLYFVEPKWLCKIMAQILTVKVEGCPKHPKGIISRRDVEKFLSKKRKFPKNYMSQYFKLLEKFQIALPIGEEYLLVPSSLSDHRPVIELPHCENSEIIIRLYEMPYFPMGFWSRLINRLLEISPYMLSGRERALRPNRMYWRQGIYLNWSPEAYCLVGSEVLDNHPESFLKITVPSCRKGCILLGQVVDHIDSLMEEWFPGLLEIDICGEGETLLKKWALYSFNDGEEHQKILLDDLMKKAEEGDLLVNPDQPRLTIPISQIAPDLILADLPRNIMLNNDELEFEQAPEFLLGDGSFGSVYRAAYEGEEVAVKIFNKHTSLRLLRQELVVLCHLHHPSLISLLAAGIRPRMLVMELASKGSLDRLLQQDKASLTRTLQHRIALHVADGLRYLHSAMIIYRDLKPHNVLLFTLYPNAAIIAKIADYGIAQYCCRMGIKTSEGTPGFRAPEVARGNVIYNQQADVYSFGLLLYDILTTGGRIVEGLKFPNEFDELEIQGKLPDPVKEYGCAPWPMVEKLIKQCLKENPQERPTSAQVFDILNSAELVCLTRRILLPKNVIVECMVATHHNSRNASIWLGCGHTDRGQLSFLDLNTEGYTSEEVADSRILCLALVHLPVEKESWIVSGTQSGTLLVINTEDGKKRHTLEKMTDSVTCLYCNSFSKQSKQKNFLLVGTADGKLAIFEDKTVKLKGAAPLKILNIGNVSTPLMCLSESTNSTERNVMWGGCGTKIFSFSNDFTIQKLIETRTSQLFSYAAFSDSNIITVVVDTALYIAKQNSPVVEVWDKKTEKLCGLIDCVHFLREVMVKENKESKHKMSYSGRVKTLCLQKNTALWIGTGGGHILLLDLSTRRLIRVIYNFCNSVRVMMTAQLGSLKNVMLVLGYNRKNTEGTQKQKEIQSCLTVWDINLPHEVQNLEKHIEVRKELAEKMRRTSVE

Molecule	remaining at 24 h, 100 µM [1]	stability in serum (resistance to proteases) ([1]; human serum, 37°C, result in words)	binding result [2]
CC[C@H](C)[C@H](NC(=O)[C@H](CCC(=O)O)NC(=O)[C@H](CC(C)C)NC(=O)[C@H](CC(C)C)NC(=O)[C@H](CCCNC(=N)N)NC(=O)[C@H](CC(N)=O)NC(=O)[C@@H](NC(=O)[C@H](CC(C)C)NC(=O)[C@H](CCCNC(=N)N)NC(=O)[C@H](CO)NC(=O)[C@H](Cc1c[nH]c2ccccc12)NC(=O)[C@H](Cc1ccccc1)NC(=O)CN)[C@@H](C)CC)C(=O)NCCCCCC(=O)N[C@@H](CO)C(=O)N[C@@H](CCCNC(=N)N)C(=O)N[C@@H](CCCNC(=N)N)C(=O)N[C@H](C(=O)N[C@H](C(=O)N[C@@H](CO)C(=O)N[C@@H](CCCNC(=N)N)C(=O)N[C@@H](C)C(=O)N[C@@H](CCCCN)C(=O)N[C@@H](CC(C)C)C(=O)N[C@@H](C)C(=O)N[C@@H](C)C(=O)N[C@@H](C)C(=O)N[C@@H](CC(C)C)C(=O)O)[C@@H](C)CC)C(C)C [Peptide 1, GFWSRLINRLLEI- AHx -SRRVISRAKLAAAL] (H-GFWSRLINRLLEI[Ahx]SRRVISRAKLAAAL-OH)	> 90%	particularly high	–
GFWSRLINRLLEIGGSSRRVISRAKLAAAL [Peptide 2, GFWSRLINRLLEI- GGS -SRRVISRAKLAAAL]	> 90%	–	–
B1	–	–	binds
B2	–	–	binds
B3	–	–	binds
